The values that follow come from PMC11773557, “NADPH-Independent Fluorescent Probe for Live-Cell Imaging of Heme Oxygenase-1” (ACS Sensors, 2025).

Where a SMILES comes first, the peptide text is derived from it. The star is where a group is joined. NBD = O=[N+]([O-])c1ccc(*)c2nonc12; Ahx = NCCCCCC(=O)O

The target of series [1] is T1, recombinant HO-1 protein with a 6xHis tag (Homo sapiens, UniProt P09601).
T1 construct: 6xHis
T1 sequence (P09601 1-288): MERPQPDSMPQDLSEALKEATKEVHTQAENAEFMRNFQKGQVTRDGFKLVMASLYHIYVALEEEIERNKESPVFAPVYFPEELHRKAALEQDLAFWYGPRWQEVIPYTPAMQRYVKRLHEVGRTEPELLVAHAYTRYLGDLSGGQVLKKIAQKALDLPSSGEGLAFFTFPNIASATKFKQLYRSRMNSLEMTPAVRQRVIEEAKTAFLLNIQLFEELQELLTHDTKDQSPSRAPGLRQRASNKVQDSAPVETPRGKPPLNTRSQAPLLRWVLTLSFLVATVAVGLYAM
Briefly: Luminescence titration of NBD-Pn with HO-1. It counts as binding. The settings on record: 4.5 μM HO-1, 2 μM probe, pH 7.4 PBS, λex = 475 nm; for increase in fluorescence intensity on addition of HO-1: emission at 526 nm, measured within 1 min. On the procedure:
(§1) 4. Photophysical measurements
(§2) All spectra were measured using a stock solution of the probes (1 mM in DMSO) which was diluted with pH 7.4 PBS buffer to the desired concentration. […]
All measurements were conducted using a 700 μL quartz cuvette and within a minute after addition of the analyte. […]

For series [2], the target named is bovine serum albumin (BSA) (Bos taurus, UniProt P02769). Briefly: Selectivity assay, emission with BSA. The class given is binding. As to conditions: 4.5 μM BSA, 2 μM probe, pH 7.4 PBS, emission at 526 nm. The procedure:
as §1, §2
(§3) Selectivity assay was performed by measuring emission of NBD-Pn in pH 7.4 PBS buffer in presence of varying analytes including HO-1, common proteins, amino acids, and biologically relevant ions. All measurements were conducted using a 700 μL quartz cuvette and within a minute after addition of the analyte. […]

Series [3] has as its system A549 cells. As to the kind of experiment: Flow cytometry analysis of cellular uptake. The class given is cell-based, human. The settings on record: 10 μM, time course of 2.5 h. The procedure:
(§4) 37°C for 24 h. Cells were treated with 50 μM hemin, 1 μM ZnPP or DMSO. […]
8. Flow cytometry analysis
A549 cells were first seeded into 12-well plates (1.0 × 10^5 cells/well) and incubated overnight to achieve adherence. Then, 10 μM NBD-P 5 was added, and incubated for different times. The cells were washed twice with cold PBS and harvested by trypsinization, followed by centrifugation (1500 x g, 5.0 min). The obtained cells were re-suspended in PBS and analyzed using flow cytometry (BD […]
(§5) 37°C for 24 h. Cells were treated with 50 μM hemin, 1 μM ZnPP or DMSO. After 24 h incubation, 10 μM NBD-P 5 was added and incubated with the cells for 2 h. The cells were then fixed with 4% polyoxymethylene for 20 min. Afterwards, the nuclei were stained using DAPI for 20 min. […]

The subject of series [4] is A549 cells. Briefly: Colocalization experiment with organelle trackers. The class given is cell-based, human. The settings on record: 10 μM probe 2 h. The procedure: 10. Colocalization experiment
A549 cells (8×10^3 cells per well) were seeded into confocal dish and incubated in a CO2 incubator at 37°C for 24 h. After incubation with NBD-P5 (10 μM) for 2 h, cells were co-stained with ER-Tracker red (400 nM) for 20 min, Lyso-Tracker red (60 nM) for 30 min, or Mito-Tracker red (50 nM) for 30 min. Fluorescence images were measured by ZEISS LSM 980 with Airyscan 2 confocal laser scanning

The target in series [5] is human serum albumin (HSA) (Homo sapiens, UniProt P02768). Briefly: Selectivity assay, emission with HSA. It counts as binding. As to conditions: 4.5 μM HSA, 2 μM probe, pH 7.4 PBS, emission at 526 nm. On the procedure: as §1, §2, §3
Chain of human serum albumin (HSA) (P02768 25-609): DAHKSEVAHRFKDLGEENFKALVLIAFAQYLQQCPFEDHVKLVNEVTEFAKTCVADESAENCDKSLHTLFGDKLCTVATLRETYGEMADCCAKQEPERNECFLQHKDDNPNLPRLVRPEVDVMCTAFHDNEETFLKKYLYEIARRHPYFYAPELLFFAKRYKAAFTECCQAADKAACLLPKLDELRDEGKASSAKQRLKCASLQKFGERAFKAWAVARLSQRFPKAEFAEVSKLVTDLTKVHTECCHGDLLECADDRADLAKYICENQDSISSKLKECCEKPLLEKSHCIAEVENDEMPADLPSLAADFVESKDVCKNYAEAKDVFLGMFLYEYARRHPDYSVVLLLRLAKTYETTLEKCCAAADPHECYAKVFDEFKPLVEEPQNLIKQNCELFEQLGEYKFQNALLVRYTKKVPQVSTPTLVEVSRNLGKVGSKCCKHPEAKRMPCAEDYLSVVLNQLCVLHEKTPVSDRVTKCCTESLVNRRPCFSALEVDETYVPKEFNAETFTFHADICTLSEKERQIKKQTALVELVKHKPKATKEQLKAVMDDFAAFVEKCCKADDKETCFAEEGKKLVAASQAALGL
In series [6] the test system is HO-1 expression in A549 cells. As to the kind of experiment: HO-1 ELISA of treated A549 cells. The class given is cell-based, human. The settings on record: 24 h, HO-1 ELISA kit, versus DMSO control. On the procedure: 7. Enzyme linked immunosorbent assay (ELISA)
A549 cells (8×10^3 cells per well) were seeded in 6-well plates and incubated in a CO2 incubator at 37°C for 24 h. Cells were treated with 50 μM hemin, 1 μM ZnPP or DMSO. After 24 h incubation, cells were washed with PBS, lysed with NP-40 buffer containing 1.0 mM PMSF, followed by centrifugation (12000 rpm, 5 min) to harvest the supernatant. The assay was carried out by strictly following instructions provided. Absorbance at 450 nm was recorded using the BioTek Synergy-2 Microplate Reader to calculate the HO-1 concentration under different treatments. […]
as §5

The test system of series [7] is HO-1 levels in live A549 cells. As to the kind of experiment: Fluorescence imaging of HO-1 levels with NBD-P5 in treated A549 cells. The class given is cell-based, human. As to conditions: A549 cells pretreated 24 h (hemin 50 μM, ZnPP 1 μM), then NBD-P5 10 μM 2 h, confocal imaging. The procedure: as §4
A549 cells (8×10^3 cells per well) were seeded into confocal dish and incubated in a CO2 incubator at 37°C for 24 h. Cells were treated with 50 μM hemin, 1 μM ZnPP or DMSO. After 24 h incubation, 10 μM NBD-P 5 was added and incubated with the cells for 2 h. The cells were then fixed with 4% polyoxymethylene for 20 min. Afterwards, the nuclei were stained using DAPI for 20 min.
Fluorescence images were measured by ZEISS LSM 980 with Airyscan 2 confocal laser scanning

Another series relates to HO-1 expression. As to conditions: study by Fang and co-workers; cited from earlier work.
In a further series the target is T2, NBD-P5.
T2 construct: also called YWFYR-CONH2; NBD-Pn (n = 5); source: synthetic peptide, NBD-Ahx coupled with PyBOP, TFA cleavage, reversed-phase HPLC
T2 peptide: {NBD-Ahx}-YWFYR-NH2
Briefly: other fluorescence titration; emission of the NBD probe (2 uM, ex 475 nm, read at 526 nm) on addition of protein in solution (HO-1 in increasing concentrations up to 4.5 uM; HSA, BSA at 4.5 uM); measured within a minute after addition. As to conditions: both partners purified.

For the next series, the target named is T3, NBD-P4.
T3 construct: caveolin-1 residues Y97-Y100 (the pentapeptide without arginine 101); also called YWFY-CONH2; NBD-Pn (n = 4); source: synthetic peptide, NBD-Ahx coupled with PyBOP, TFA cleavage, reversed-phase HPLC
T3 peptide: {NBD-Ahx}-YWFY-NH2
The description is as above. The settings on record: both partners purified.

Chain of bovine serum albumin (BSA) (P02769 25-607): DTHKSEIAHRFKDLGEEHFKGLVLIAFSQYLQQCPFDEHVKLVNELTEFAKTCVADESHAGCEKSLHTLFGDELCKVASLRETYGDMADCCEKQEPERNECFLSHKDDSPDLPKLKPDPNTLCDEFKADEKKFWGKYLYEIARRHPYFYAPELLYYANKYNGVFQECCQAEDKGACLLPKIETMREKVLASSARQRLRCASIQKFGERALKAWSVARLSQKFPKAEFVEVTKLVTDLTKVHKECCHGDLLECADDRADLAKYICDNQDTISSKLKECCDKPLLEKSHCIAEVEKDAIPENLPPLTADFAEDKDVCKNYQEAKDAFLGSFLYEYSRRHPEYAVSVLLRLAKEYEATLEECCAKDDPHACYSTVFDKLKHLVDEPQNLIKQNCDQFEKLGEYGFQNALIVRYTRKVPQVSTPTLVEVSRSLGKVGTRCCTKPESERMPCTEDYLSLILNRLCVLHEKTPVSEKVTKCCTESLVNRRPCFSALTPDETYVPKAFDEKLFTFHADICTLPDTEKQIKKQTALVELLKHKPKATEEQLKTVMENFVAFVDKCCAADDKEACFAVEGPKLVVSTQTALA

For the molecule `NC(=O)[C@H](Cc1ccc(O)cc1)NC(=O)[C@H](Cc1ccccc1)NC(=O)[C@H](Cc1c[nH]c2ccccc12)NC(=O)[C@H](Cc1ccc(O)cc1)NC(=O)CCCCCNc1ccc([N+](=O)[O-])c2nonc12` [NBD-P4] (HELM PEPTIDE1{[O=[N+]([O-])c1ccc([*:2])c2nonc12].[O=C(CCCCCN[*:1])[*:2]].Y.W.F.Y.[am]}$$$$V2.0), the “increase in fluorescence intensity on addition of HO-1” value in [1] came out at 6 fold.
As for `N=C(N)NCCC[C@H](NC(=O)[C@H](Cc1ccc(O)cc1)NC(=O)[C@H](Cc1ccccc1)NC(=O)[C@H](Cc1c[nH]c2ccccc12)NC(=O)[C@H](Cc1ccc(O)cc1)NC(=O)CCCCCNc1ccc([N+](=O)[O-])c2nonc12)C(N)=O` [NBD-P5] (HELM PEPTIDE1{[O=[N+]([O-])c1ccc([*:2])c2nonc12].[O=C(CCCCCN[*:1])[*:2]].Y.W.F.Y.R.[am]}$$$$V2.0), the “fluorescence change on addition of BSA” value in series [2] is listed as “small fluorescence increase”. In addition, in series [1], the “blue shift in fluorescence wavelength maxima on addition of HO-1” value was found to be 24 nm and the “increase in fluorescence intensity on addition of HO-1” value was 9 fold. Also, the “uptake by A549 cells” value with A549 cells [3] was “increased rapidly in the first 1 h”. For the same molecule, the “Pearson's correlation coefficient with ER-Tracker red” value in the series on A549 cells [4] (ER-Tracker red 400 nM 20 min, ImageJ) worked out at 0.97. Moreover, the “colocalization with either Lyso-Tracker or Mito-Tracker” value with A549 cells [4] (Lyso-Tracker red 60 nM or Mito-Tracker red 50 nM 30 min) is given as “not as significant as that with ER-Tracker”. For the same molecule, in series [5], the “fluorescence change on addition of HSA” value is recorded as “small fluorescence increase”.
As to `C=CC1=C(C)c2cc3[n-]c(cc4[n-]c(cc5nc(cc1n2)C(C)=C5C=C)c(C)c4CCC(=O)O)c(CCC(=O)O)c3C.[Zn+2]` [ZnPP, zinc(II) protoporphyrin], the “HO-1 level relative to DMSO control” value in [6] (1 μM) is listed as 0.89 fold. Besides, the “NBD-P5 fluorescence in treated cells compared with control cells” value in series [7] is on record as “relatively weaker fluorescence signal”.
As for `CC(C)(C)c1cc(O)ccc1O` [tBHQ], in the series on HO-1 expression, the “upregulation of HO-1” value is “about 1.6 fold”.
Consider hemin, for which, in [6] (50 μM), the “upregulation of HO-1 expression” value is recorded as “around 1.53 fold”. The “NBD-P5 fluorescence in treated cells compared with control cells” value in series [7] was “significantly stronger green fluorescence”.

B1: Heme oxygenase-1 (enzyme)
chain: MERPQPDSMPQDLSEALKEATKEVHTQAENAEFMRNFQKGQVTRDGFKLVMASLYHIYVALEEEIERNKESPVFAPVYFPEELHRKAALEQDLAFWYGPRWQEVIPYTPAMQRYVKRLHEVGRTEPELLVAHAYTRYLGDLSGGQVLKKIAQKALDLPSSGEGLAFFTFPNIASATKFKQLYRSRMNSLEMTPAVRQRVIEEAKTAFLLNIQLFEELQELLTHDTKDQSPSRAPGLRQRASNKVQDSAPVETPRGKPPLNTRSQAPLLRWVLTLSFLVATVAVGLYAM
In the case of B1, the “fold increase in fluorescence intensity of the probe with 4.5 uM HO-1” value with NBD-P5 is 9 fold. In the series with NBD-P4, the “fold increase in fluorescence intensity of the probe with HO-1” value was found to be 6 fold.
